According to ChEMBL document CHEMBL2074350, “Immunosuppressants FK506 and rapamycin function as reversal agents of the multidrug resistance phenotype” (Blood, 1992):

Target: ATP-dependent translocase ABCB1 (Homo sapiens, UniProt P08183)
Assay: TP_TRANSPORTER: increase in Daunomycin intracellular accumulation (Daunomycin: 10 uM, Rapamycin: 5 uM) in CEM/VBL 250 cells
Assay type: functional, cell-based
Details: cem/vbl 250, 5 µM

ATP-dependent translocase ABCB1, sequence (P08183 whole entry): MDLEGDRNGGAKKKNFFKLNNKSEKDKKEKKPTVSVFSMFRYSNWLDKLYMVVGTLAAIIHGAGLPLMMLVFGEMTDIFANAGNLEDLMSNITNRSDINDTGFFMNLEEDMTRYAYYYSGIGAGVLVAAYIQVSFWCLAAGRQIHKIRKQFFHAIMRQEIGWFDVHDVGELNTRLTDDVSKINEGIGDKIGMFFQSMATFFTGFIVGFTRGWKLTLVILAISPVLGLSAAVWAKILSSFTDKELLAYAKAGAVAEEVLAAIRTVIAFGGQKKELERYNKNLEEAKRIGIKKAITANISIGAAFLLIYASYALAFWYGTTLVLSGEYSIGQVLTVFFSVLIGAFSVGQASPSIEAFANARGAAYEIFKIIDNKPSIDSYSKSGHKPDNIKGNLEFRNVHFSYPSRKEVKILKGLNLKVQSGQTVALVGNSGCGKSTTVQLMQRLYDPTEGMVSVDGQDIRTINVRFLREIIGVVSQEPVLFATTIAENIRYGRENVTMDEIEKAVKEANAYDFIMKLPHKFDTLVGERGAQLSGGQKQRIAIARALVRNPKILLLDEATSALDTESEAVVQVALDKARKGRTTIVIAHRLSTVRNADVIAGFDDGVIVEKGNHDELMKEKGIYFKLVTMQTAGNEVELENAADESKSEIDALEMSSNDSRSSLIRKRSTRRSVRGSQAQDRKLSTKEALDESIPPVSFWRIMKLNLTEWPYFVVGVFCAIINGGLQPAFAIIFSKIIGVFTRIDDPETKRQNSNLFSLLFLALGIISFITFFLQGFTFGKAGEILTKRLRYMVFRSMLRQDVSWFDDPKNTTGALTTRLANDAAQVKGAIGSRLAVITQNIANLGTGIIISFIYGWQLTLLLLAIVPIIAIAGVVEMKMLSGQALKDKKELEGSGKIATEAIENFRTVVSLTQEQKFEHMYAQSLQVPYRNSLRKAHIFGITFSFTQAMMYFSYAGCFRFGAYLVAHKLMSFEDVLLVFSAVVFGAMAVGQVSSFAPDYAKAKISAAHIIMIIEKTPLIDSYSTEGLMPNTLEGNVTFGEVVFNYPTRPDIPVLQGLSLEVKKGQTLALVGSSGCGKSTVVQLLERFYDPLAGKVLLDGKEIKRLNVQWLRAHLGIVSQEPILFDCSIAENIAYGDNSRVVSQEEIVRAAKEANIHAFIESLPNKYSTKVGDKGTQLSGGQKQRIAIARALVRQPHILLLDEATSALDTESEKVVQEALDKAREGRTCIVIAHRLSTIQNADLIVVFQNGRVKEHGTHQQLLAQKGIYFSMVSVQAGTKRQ

Activity: inhibitor [(at a rough estimate) 7-fold]
Structure (SMILES): CO[C@H]1C[C@@H]2CC[C@@H](C)[C@@](O)(O2)C(=O)C(=O)N2CCCC[C@H]2C(=O)O[C@H]([C@H](C)C[C@@H]2CC[C@@H](O)[C@H](OC)C2)CC(=O)[C@H](C)/C=C(\C)[C@@H](O)[C@@H](OC)C(=O)[C@H](C)C[C@H](C)/C=C/C=C/C=C/1C [SIROLIMUS]
